Source: patent publication USRE40594E1, “Inhibitors of the bitter taste response” (Mount Sinai School of Medicine of New York University, priority 1998, dated 2008)
Entries after “also recorded” stand apart in the source; their conditions may differ.

Target: T1, rhodopsin (Bos taurus, UniProt P02699)
T1 construct: Rhodopsin was purified in the light as 6 M urea-washed bovine rod outer segments; from tissue; host or cells: bovine rod outer segments (6 M urea-washed)
Assay: Rhodopsin-mediated activation of transducin (trypsin sensitivity assay, receptor specificity control)
Assay type: biochemical, bovine
Details: 0.001 mM rhodopsin; AMP 0.25, 0.5, 1.25, 2.5, 5.0 mM; FIG. 1D
Protocol: G Protein Activation Assays. Bovine (Bos primigenius) tongues were collected fresh from a local slaughterhouse and transported on ice to the laboratory. Circumvallate papillae were hand dissected, frozen in liquid nitrogen, and stored at −80° C. until use. The collected taste tissues were homogenized, particulates removed by centrifugation, and enriched taste cell membranes collected as described (Ming, D., et al., 1998, Proc. Natl. Acad. Sci. U.S.A. 95:8933-8938). The pelleted membranes were rinsed twice, resuspended in homogenization buffer lacking protease inhibitors, and further homogenized by 20 passages through a 25-gauge needle. Aliquots were either flash frozen or stored on ice until use. The concentration of protein in the membrane preparations was determined by the Peterson modification of the micro-Lowry method (Peterson, G. L., 1977, Anal. Biochem. 83:346-356). Activation of transducin was based on the published trypsin sensitivity procedure (Ming, D., et al., 1998, Proc. Natl. Acad. Sci. U.S.A. 95:8933-8938, Neer, E. J., et al., 1994, Methods Enzymol. 237:226-239). After the trypsin digestion, samples were diluted with Laemmli buffer (Laemmli. U. K., 1970, Nature (London) 227:680-685) and separated by SDS/PAGE by using a 4-20% gel and Tris-glycine buffer. […]

T1 sequence (P02699 whole entry): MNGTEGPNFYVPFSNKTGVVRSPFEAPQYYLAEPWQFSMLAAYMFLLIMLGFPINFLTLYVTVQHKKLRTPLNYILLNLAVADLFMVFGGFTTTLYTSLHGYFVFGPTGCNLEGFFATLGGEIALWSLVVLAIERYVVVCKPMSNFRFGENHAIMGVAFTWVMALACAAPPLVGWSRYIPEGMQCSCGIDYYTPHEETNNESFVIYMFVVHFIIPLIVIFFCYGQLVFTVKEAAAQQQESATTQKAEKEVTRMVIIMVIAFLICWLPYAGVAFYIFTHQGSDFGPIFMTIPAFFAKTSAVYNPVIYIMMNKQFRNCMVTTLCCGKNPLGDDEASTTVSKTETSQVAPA

With Nc1ncnc2c1ncn2[C@@H]1O[C@H](COP(=O)(O)O)[C@@H](O)[C@H]1O [AMP, adenosine 5′ monophosphate] the “inhibition of activation of transducin by rhodopsin” value was “does not inhibit; also recorded: did not inhibit”.
